Experimental data: article PMC3539763 (ACS medicinal chemistry letters, 2010)
“Also recorded” adds a separate entry of the source.

What was measured:
[1] = molecular target: rat mGlu5 (Rattus norvegicus, UniProt P31424); assay: calcium fluorescence; format: cell-based; conditions: for less potent than 10e: potentiation EC50 relative to 10e
[2] = molecular target: mGlu5 (Rattus norvegicus, UniProt P31424); assay: radioligand binding with [3H]3-methoxy-PEPy; conditions: at highest concentration, 30 μM; partial and incomplete; data not shown
Sequence of mGlu5 (P31424 21-1203): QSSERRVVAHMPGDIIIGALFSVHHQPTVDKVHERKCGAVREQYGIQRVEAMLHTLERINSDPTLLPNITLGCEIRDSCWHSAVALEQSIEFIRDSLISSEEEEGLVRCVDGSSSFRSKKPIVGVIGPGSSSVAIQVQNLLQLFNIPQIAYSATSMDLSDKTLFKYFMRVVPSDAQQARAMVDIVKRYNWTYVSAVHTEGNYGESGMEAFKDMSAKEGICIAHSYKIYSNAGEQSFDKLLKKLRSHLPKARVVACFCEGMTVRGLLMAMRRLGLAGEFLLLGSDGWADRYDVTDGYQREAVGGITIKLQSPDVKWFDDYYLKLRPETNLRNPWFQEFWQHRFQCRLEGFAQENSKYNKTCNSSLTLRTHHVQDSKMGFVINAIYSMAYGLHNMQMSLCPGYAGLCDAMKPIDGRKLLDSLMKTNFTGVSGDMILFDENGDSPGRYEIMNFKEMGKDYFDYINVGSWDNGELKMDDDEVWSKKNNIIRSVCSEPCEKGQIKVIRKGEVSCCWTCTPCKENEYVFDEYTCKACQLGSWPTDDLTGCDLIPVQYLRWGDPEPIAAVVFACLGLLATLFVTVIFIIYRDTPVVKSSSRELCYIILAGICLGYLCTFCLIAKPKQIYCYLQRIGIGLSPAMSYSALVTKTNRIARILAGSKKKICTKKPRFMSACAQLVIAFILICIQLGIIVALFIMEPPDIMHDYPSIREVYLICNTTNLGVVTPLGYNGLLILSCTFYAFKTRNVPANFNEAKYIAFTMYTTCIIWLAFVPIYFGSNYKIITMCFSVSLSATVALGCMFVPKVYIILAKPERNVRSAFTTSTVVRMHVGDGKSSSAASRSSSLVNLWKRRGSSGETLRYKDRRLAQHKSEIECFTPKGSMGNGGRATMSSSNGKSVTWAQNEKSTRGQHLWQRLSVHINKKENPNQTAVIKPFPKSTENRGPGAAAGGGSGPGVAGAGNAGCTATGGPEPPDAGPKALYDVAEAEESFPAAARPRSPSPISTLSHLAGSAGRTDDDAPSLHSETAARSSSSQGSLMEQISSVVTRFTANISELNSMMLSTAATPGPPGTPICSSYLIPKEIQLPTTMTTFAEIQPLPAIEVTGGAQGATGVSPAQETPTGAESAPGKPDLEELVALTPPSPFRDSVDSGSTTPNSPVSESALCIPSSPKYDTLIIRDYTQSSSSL

[3] = transcellular permeability; conditions: >20 × 10^-6 cm/sec is preferred for CNS targets
[4] = stability in rat liver microsomes; conditions: after 60 min
[5] = kinetic aqueous solubility screen; conditions: aqueous medium
[6] = stability in human liver microsomes; conditions: after 60 min
[7] = system: open field locomotor activity; assay: open field locomotor activity, compound dosed alone; format: in vivo, rat; conditions: dosed alone at 56.6 mg/kg

Sequence of rat mGlu5 (P31424 21-1203): as above

## O=C(COCc1ccccc1)N1CCN(c2ncccn2)CC1 [10h]
[1]
  EC50: > 10 µM

## COC(=O)c1ccccc1N1CCN(C(=O)COCc2ccccc2)CC1 [10f]
[1]
  less potent than 10e: > 5 fold

## COc1ccccc1N1CCN(C(=O)COCc2ccccc2)CC1 [10c]
[1]
  less potent than 10e: > 5 fold

## N#Cc1ccccc1N1CCN(C(=O)COCc2ccccc2)CC1 [10e]
[2]
  displacement of [3H]3-methoxy-PEPy radioligand: ca. 50%
[3]
  transcellular permeability: acceptable
[4]
  parent compound remaining: less than 5%
[5]
  solubility kinetic: > 30 µg/mL
[6]
  parent compound remaining: less than 5%
[7]
  sedation / abnormal behavior in open field locomotor activity: no sedation or abnormal behavior; also recorded: without causing sedation
[1]; CRC in absence of glutamate
  concentration at which compound alone slightly activates mGlu5: above 30 μM
[1]; compound alone, no glutamate, up to 10 μM
  mGlu5 agonism of compound alone: no inherent mGlu5 agonism; also recorded: no effect
[1]; potentiator of the glutamate EC20
  potency enhancement vs. lead 8: > 3 fold
